Experimental findings from patent publication US20100286164A1, “SUBSTITUTED ARYL ALKYLAMINO-OXY-ANALOGS AND USES THEREOF” (The Brigham and Women's Hospital, Inc, priority 2007, published 2010) are described below.

Each structure is given as a SMILES string.

Broadly, the inhibition is the relative decrease from the control value, in per cent. Low readings indicate little suppression, high ones strong suppression.

The first assay has as its target T1, γ-secretase (C100FLAG APP-based substrate) (Homo sapiens, UniProt P49768).
T1 construct: made in house; host or cells: S-1 CHO cell line (Chinese hamster ovary)
Put plainly: In vitro γ-secretase assay, C-100 Flag (APP-based substrate) cleavage. The assay is classed as biochemical. To be noted: effect on C-100 Flag cleavage; compounds tested in vitro at 100 μM. As for the experimental part: (§1) Purification of γ-Secretase and in Vitro γ-Secretase Assays—The following procedures can be used to isolate γ-secretase and measure its enzymatic activity. The multistep procedure for the high grade purification of human γ-secretase from the S-1 cells is performed as described previously (Fraering, P. C., et al. (2004) Biochemistry 43, 9774-9789). In vitro γ-secretase assays using the recombinant APP-based substrate C100FLAG and the recombinant Notch-based substrate N100FLAG are performed as reported previously (Esler, W. P., Kimberly, W. T., Ostaszewski, B. L., Ye, W., Diehl, T. S., Selkoe, D. J., and Wolfe, M. S. (2002) Proc. Natl. Acad. Sci. U.S.A. 99, 2720-2725, Kimberly, W. T., et al. (2003) Biochemistry 42, 137-144). Basically, the proteolytic reaction mixtures contain C100FLAG and N100FLAG substrate at a concentration of 1 μm, purified γ-secretase solubilized in 0.2% CHAPSO/HEPES, pH 7.5, at 10-fold dilution from stock (stock=the M2 anti-FLAG-eluted fraction in the purification protocol from S-1 cells (Fraering, P. C., et al. (2004) Biochemistry 43, 9774-9789)), 0.025% phosphatidylethanolamine (PE), and 0.10% phosphatidylcholine (PC). All the reactions are stopped by adding 0.5% SDS, and the samples are assayed for Aβ40 and Aβ42 by ELISA as described (Xia, W., Zhang, J., Ostaszewski, B. L., Kimberly, W. T., Seubert, P., Koo, E. H., Shen, J., and Selkoe, D. J. (1998) Biochemistry 37, 16465-16471). The capture antibodies are 2G3 (to Aβ residues 33-40) for the Aβ40 species and 21F12 (to Aβ residues 33-42) for the Aβ42 species.
Western Blotting and Antibodies—The following assay can be used to determine the extent to which the compounds of interest modulate the cleavage of APP and the Notch receptor. For Western analysis of PS1-NTF, PS1-CTF, Aph1α2-HA, FLAG-Pen-2, and NCT-GST, the samples are run on 4-20% Tris-glycine polyacrylamide gels, transferred to polyvinylidene difluoride, and can be probed with Ab14 (for PS1-NTF, 1:2000; a gift of S. Gandy), 13A11 (for PS1-CTF, 5 μg/ml; a gift of Elan Pharmaceuticals), 3F10 (for Aph1α2-HA, 50 ng/ml; Roche Applied Science), anti-FLAG M2 (for FLAG-Pen-2, 1:1000; Sigma), or αGST antibodies (for NCT-GST, 1:3000; Sigma). Samples from the γ-secretase activity assays (above) are run on 4-20% Tris-glycine gels and can be transferred to polyvinylidene difluoride membranes to detect AICD-FLAG with anti-FLAG M2 antibodies (1:1000, Sigma) and NICD-FLAG with Notch Ab1744 antibody (1:1000, Cell Signaling Technology), which is selective for the N terminus of NICD; the same samples are transferred to nitrocellulose membranes to detect Aβ with the anti-Aβ 6E10 antibody. Levels of AICD-FLAG and NICD-FLAG are estimated by densitometry using AlphaEase/Spot Denso (Alpha Innotech Corp.).
(§2) Naphthyl Amine Alcohol Analogs and Assay Data—Compounds listed in Table 2 may be assayed as described herein (e.g., in Examples 3 and 4) and the specificity may be evaluated by comparing the relative inhibitions of C-100 Flag and N-100 Flag cleavage. The potency of the inhibitor may be evaluated with an Aβ1-40 ELISA assay (e.g., using an Aβ40 ELISA kit available from Invitrogen, Carlsbad, Calif.). […] The following table indicates the properties of certain compounds of the invention that were assayed as described herein. (INH=Inhibits)
On to `COc1ccc(N2CCN(CCC(O)c3ccc4ccccc4c3)CC2)cc1` (centres unmarked) [Example 2], for which the “γ-Secretase Assay C-100 Flag” value was “No change (NC)”. In the case of `OC(CCNc1ccccc1)c1ccc2ccccc2c1` (centres unmarked) [Example 10], the “γ-Secretase Assay C-100 Flag” value is recorded as “Enh”.

`CCN(CCC(O)c1ccc2ccccc2c1)Cc1ccccc1` (centres unmarked) [Example 12]: the “γ-Secretase Assay C-100 Flag” value is recorded as “Enh”. As for `COc1ccc(CN(CCC(O)c2ccc3ccccc3c2)C(C)C)cc1` (centres unmarked) [Example 29], the “γ-Secretase Assay C-100 Flag” value is recorded as “Inh”. For `OC(CCNc1ccc(Oc2ccccc2)cc1)c1ccc2ccccc2c1` (centres unmarked) [Example 77], the “γ-Secretase Assay C-100 Flag” value is “Inh”.

For `Cc1ccc(NCCC(O)c2ccc3ccccc3c2)cc1F` (centres unmarked) [Example 78], the “γ-Secretase Assay C-100 Flag” value is given as “Enh”. Still for that read-out and setting: in the case of `CCOc1ccc(NCCC(O)c2ccc(F)cc2)cc1` (centres unmarked) [Example 79] it was “Enh”; in that of `COc1ccc(NCCC(O)c2ccc(Cl)cc2)cc1` (centres unmarked) [Example 80], “Enh”.

In another assay the target is T2, γ-secretase (Aβ1-40 production) (Homo sapiens, UniProt P49768).
T2 construct: made in house; host or cells: S-1 CHO cell line (Chinese hamster ovary)
The assay is described as follows: γ-Secretase assay, Aβ1-40 ELISA. It counts as biochemical. To be noted: 50 μM. The procedure:
as §1, §2
Background: An ELISA detects its analyte on a solid surface through an enzyme-linked reagent.
`C[C@@H](CN1CCN(c2ccc(F)cc2)CC1)[C@H](O)c1ccc2ccccc2c1` [Example 89] yielded an inhibition at 50 µM of 9%. Still for that read-out and setting: to `C[C@H](CN1CCN(c2ccc(F)cc2)CC1)[C@H](O)c1ccc2ccccc2c1` [Example 90] belongs 0%.

The assay is the same for the next values; noted with them: 100 μM.
Compound `COc1ccc(N2CCN(CCC(O)c3ccc4ccccc4c3)CC2)cc1` (centres unmarked) [Example 2] showed an inhibition at 100 µM of 0%.

In turn, `CC(C)N(CCC(O)c1ccccc1)Cc1ccccc1` (centres unmarked) [Example 4] yielded an inhibition at 100 µM of 10%. Regarding `OC(CCN(Cc1ccccc1)Cc1ccccc1)c1ccc2ccccc2c1` (centres unmarked) [Example 5], the inhibition at 100 µM was found to be 32%. `OC(CCN1CCCCCCC1)c1ccc2ccccc2c1` (centres unmarked) [Example 6] returned an inhibition at 100 µM of 20%. Still for that read-out and setting: in the case of `OC(CCN(C1CCCCC1)C1CCCCC1)c1ccc2ccccc2c1` (centres unmarked) [Example 7] it was 7%. As to `CN(CCC(O)c1ccc2ccccc2c1)Cc1ccccc1` (centres unmarked) [Example 8], the “γ-Secretase Assay ELISA % Inhibition [100 μM] Aβ1-40” value came out at 15%.

For `CC(C)CN(CCC(O)c1ccc2ccccc2c1)CC(C)C` (centres unmarked) [Example 9], the inhibition at 100 µM came out at 0%. The same measure, in the same setting: to `OC(CCNc1ccccc1)c1ccc2ccccc2c1` (centres unmarked) [Example 10] belongs 0%; to `CC(C)(C)N(CCC(O)c1ccc2ccccc2c1)Cc1ccccc1` (centres unmarked) [Example 11], 0%.

Compound `CCN(CCC(O)c1ccc2ccccc2c1)Cc1ccccc1` (centres unmarked) [Example 12] returned an inhibition at 100 µM of 0%. Compound `CN(CCc1ccccc1)CCC(O)c1ccc2ccccc2c1` (centres unmarked) [Example 15] came in with an inhibition at 100 µM of 27%. With `OC(CCN1CCC2(CC1)OCCO2)c1ccc2ccccc2c1` (centres unmarked) [Example 16], 100 µM produced 2% inhibition. On the same count and under the same terms, in the case of `OC(CCNc1ccc2c(c1)OCCO2)c1ccc2ccccc2c1` (centres unmarked) [Example 21] it was 0%; in that of `OC(CCNc1ccc(C2CCCCC2)cc1)c1ccc2ccccc2c1` (centres unmarked) [Example 22], 0%.

`OC(CCNc1ccc(Cl)c(Cl)c1)c1ccc2ccccc2c1` (centres unmarked) [Example 23] had an inhibition at 100 µM of 0%. Turning to `OC(CCNc1ccc(C(F)(F)F)cc1)c1ccc2ccccc2c1` (centres unmarked) [Example 24], the inhibition at 100 µM worked out at 0%. Same read-out and setting: to `COc1ccc(NCCC(O)c2ccc3ccccc3c2)cc1` (centres unmarked) [Example 25] belongs 0%; to `CN(CCC(O)c1ccc2ccccc2c1)c1ccc(Oc2ccccc2)cc1` (centres unmarked) [Example 26], 6%; to `CC(C)N(CCC(O)c1ccc2ccccc2c1)c1ccc(Cl)cc1` (centres unmarked) [Example 27], 0%. Regarding `OC(CCNc1cc(F)ccc1F)c1ccc2ccccc2c1` (centres unmarked) [Example 28], at 100 µM the inhibition was 0%. With `COc1ccc(CN(CCC(O)c2ccc3ccccc3c2)C(C)C)cc1` (centres unmarked) [Example 29], the inhibition at 100 µM stood at 55%.

Compound `CC(C)N(CCC(O)c1ccc2ccccc2c1)Cc1ccc(C#N)cc1` (centres unmarked) [Example 34] returned an inhibition at 100 µM of 19%. `COc1cc(CN(CCC(O)c2ccc3ccccc3c2)C(C)C)cc(OC)c1` (centres unmarked) [Example 35] gave an inhibition at 100 µM of 17%. Same read-out and setting: in the case of `CC(C)N(CCC(O)c1ccc2ccccc2c1)Cc1cccc(C#N)c1` (centres unmarked) [Example 36] it was 7%; in that of `OC(CCN(Cc1ccccc1)C1CC1)c1ccc2ccccc2c1` (centres unmarked) [Example 37], 36%. On the same count and under the same terms, to `CC(C)N(CCC(O)c1ccc(F)cc1)Cc1ccccc1` (centres unmarked) [Example 38] belongs 17%; to `OC(CCN1CCN(c2ccc(F)cc2)CC1)c1ccc(C(F)(F)F)cc1` (centres unmarked) [Example 39], 14%; to `CC(C)(C)c1ccc(C(O)CCN2CCN(c3ccc(F)cc3)CC2)cc1` (centres unmarked) [Example 40], 46%.

With `CC(C)N(CCC(O)c1ccc2ccccc2c1)Cc1ccc(F)c(Cl)c1` (centres unmarked) [Example 43], the inhibition at 100 µM turned out to be 0%. As for `CC(C)N(CCCC(O)c1cccc2ccccc12)Cc1ccccc1` (centres unmarked) [Example 45], the inhibition at 100 µM was found to be 0%. Still for that read-out and setting: in the case of `CC(C)N(CCCC(O)c1ccc2ccccc2c1)Cc1ccccc1` (centres unmarked) [Example 46] it was 2%; in that of `OC(CCN1CCN(Cc2ccccc2)CC1)c1ccc2ccccc2c1` (centres unmarked) [Example 47], 0%; in that of `Cc1cc(C)c(C(O)CCN(Cc2ccccc2)C(C)C)c(C)c1` (centres unmarked) [Example 49], 0%.

`CC(C)N(CCC(O)c1ccc(OC2CCCCO2)cc1)Cc1ccccc1` (centres unmarked) [Example 50] showed an inhibition at 100 µM of 0%. With `COc1ccc2cc(C(O)CCN(Cc3ccccc3)C(C)C)ccc2c1` (centres unmarked) [Example 51], the inhibition at 100 µM came out at 10%. Still for that read-out and setting: to `CC(C)N(CCC(O)c1ccc(Oc2ccccc2)cc1)Cc1ccccc1` (centres unmarked) [Example 52] belongs 24%. Compound `CC(C)N(CCC(O)c1cccc(OCc2ccccc2)c1)Cc1ccccc1` (centres unmarked) [Example 53] registered an inhibition at 100 µM of 31%. In turn, `CC(C)N(CCC(O)c1ccc(OC(F)(F)F)cc1)Cc1ccccc1` (centres unmarked) [Example 58] showed an inhibition at 100 µM of 1%. For `COc1ccc(C(O)CCN(Cc2ccccc2)C(C)C)cc1OC` (centres unmarked) [Example 59], the inhibition at 100 µM worked out at 0%. Compound `COc1ccc(C(O)CCN(Cc2ccccc2)C(C)C)cc1F` (centres unmarked) [Example 60] yielded an inhibition at 100 µM of 0%. As to `CC(C)N(CCC(O)c1ccccc1CN1CCCCC1)Cc1ccccc1` (centres unmarked) [Example 61], the inhibition at 100 µM worked out at 0%. `CC(C)N(CCC(O)c1ccc2c(c1)OCO2)Cc1ccccc1` (centres unmarked) [Example 62] yielded an inhibition at 100 µM of 0%. `Cc1ccc(C(O)CCN(Cc2ccccc2)C(C)C)cc1C` (centres unmarked) [Example 63]: the inhibition at 100 µM is 0%. Still for that read-out and setting: in the case of `CC(C)N(CCC(O)c1ccc(C#N)cc1)Cc1ccccc1` (centres unmarked) [Example 64] it was 6%; in that of `CC(C)N(CCC(O)c1ccc2ccccc2c1)Cc1ccc(C(=O)O)cc1` (centres unmarked) [Example 66], 2%. For `CC(C)N(CCC(O)c1ccc(C(=O)O)cc1)Cc1ccccc1` (centres unmarked) [Example 67], the inhibition at 100 µM is 27%. Same read-out and setting: in the case of `COc1cccc2cc(C(O)CCN(Cc3ccccc3)C(C)C)oc12` (centres unmarked) [Example 70] it was 0%; in that of `CC(C)N(CC[C@H](O)c1ccc2ccccc2c1)Cc1ccccc1` [Example 76], 17%; in that of `OC(CCNc1ccc(Oc2ccccc2)cc1)c1ccc2ccccc2c1` (centres unmarked) [Example 77], 48%. The same measure, in the same setting: in the case of `Cc1ccc(NCCC(O)c2ccc3ccccc3c2)cc1F` (centres unmarked) [Example 78] it was 0%; in that of `CCOc1ccc(NCCC(O)c2ccc(F)cc2)cc1` (centres unmarked) [Example 79], 0%. On the same count and under the same terms, in the case of `COc1ccc(NCCC(O)c2ccc(Cl)cc2)cc1` (centres unmarked) [Example 80] it was 0%; in that of `CC(C)N(CCC(Oc1ccc(C(F)(F)F)cc1)c1ccc2ccccc2c1)Cc1ccccc1` (centres unmarked) [Example 85], 50%. For `COC(CCN(Cc1ccccc1)C(C)C)c1ccc2cc(C(O)CCN(Cc3ccccc3)C(C)C)ccc2c1` (centres unmarked) [Example 86], the inhibition at 100 µM is 12%.

In the case of `CC(CN(Cc1ccccc1)C(C)C)C(O)c1ccc2ccccc2c1` (centres unmarked) [Example 87], the “γ-Secretase Assay ELISA % Inhibition [100 μM] Aβ1-40” value turned out to be 22%.
